What all share (assay type): cell-based
Experiment [1] concerns the target T1, hGIPR (Homo sapiens, UniProt P48546).
T1 construct: expressed in transfected cells
T1 sequence (P48546 22-466): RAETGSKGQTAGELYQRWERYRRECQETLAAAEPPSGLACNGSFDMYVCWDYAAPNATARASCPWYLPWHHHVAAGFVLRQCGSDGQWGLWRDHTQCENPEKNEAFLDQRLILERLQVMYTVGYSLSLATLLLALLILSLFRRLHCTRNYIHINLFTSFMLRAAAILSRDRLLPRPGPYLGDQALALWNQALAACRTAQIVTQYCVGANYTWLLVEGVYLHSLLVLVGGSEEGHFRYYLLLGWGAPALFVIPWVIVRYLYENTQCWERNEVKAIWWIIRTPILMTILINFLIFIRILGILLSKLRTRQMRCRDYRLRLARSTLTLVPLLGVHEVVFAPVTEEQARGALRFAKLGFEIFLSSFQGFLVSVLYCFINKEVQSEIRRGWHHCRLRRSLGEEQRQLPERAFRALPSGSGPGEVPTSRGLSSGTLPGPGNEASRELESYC
Put plainly: Functional cAMP formation (HTRF) in HEK-293 clonal cells expressing hGIPR, 0.1% bovine casein, without or with 1.0% human serum albumin. The conditions noted are these: for Emax: percent of maximal response to GIP(1-42)NH2; for EC50: geometric mean. In a few lines:
(§1)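 Cells were stimulated with peptide for 30 min at 37° C, then lysed in buffer carrying cAMP-d2 and anti-cAMP Eu3+-cryptate for a competitive HTRF read after at least 60 min at room temperature. The 665/620 nm ratio was converted to nM cAMP against a standard curve.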

For experiment [2], the target named is T2, hGCGR (Homo sapiens, UniProt P47871).
T2 construct: expressed in transfected cells
Put plainly: Functional cAMP formation (HTRF) in HEK-293 clonal cells expressing hGCGR, 0.1% bovine casein, without or with 1.0% human serum albumin. In a few lines: as §1

Experiment [3] has as its target hGLP-1R (Homo sapiens, UniProt P43220). Put plainly: Functional cAMP formation (HTRF) in HEK-293 clonal cells expressing hGLP-1R, 0.1% bovine casein, without or with 1.0% human serum albumin. The arrangement: expressed in transfected cells. The following applies: for EC50: cAMP, 0.1% bovine casein (no human serum albumin), geometric mean; for Emax: read-out: hGLP-1R Emax, % ± SEM. A digest of the protocol:
as §1

The mark [4] stands for this setting: cAMP, 37° C., 0.1% bovine casein (no human serum albumin), read-out: hGIPR EC50, nM (SEM, n).
The mark [5] stands for this setting: cAMP, 37° C., 0.1% bovine casein (no human serum albumin), geometric mean, read-out: hGCGR EC50, nM (SEM, n).
[6] abbreviates: 37° C., read-out: hGLP-1R EC50, nM (SEM, n).
[7] abbreviates: 0.1% bovine casein and 1.0% human serum albumin, 37° C., geometric mean, read-out: hGCGR EC50, nM (SEM, n).

We go through four compounds from US20230265151A1, “GIP/GLP1 CO-AGONIST COMPOUNDS” (priority 2020, published 2023).

Read-outs that look alike come from different tables or passages of the source. *1 amine or outer side, *2 acyl side, *3 side chain or, on linkers, in order; H or OH if unused. Where a SMILES comes first, the peptide text is derived from it. Side-chain parts run from the residue outwards. [ ]: non-standard residue; d: D form. The star is where a group is joined. αMePhe(2-F) = C[C@](N)(Cc1ccccc1F)C(=O)O; γGlu = O=C(O)[C@H](CCC(=O)[*:2])N[*:1]; C14 diacid = O=C(O)CCCCCCCCCCCCC(=O)*; αMeY = C[C@](N)(Cc1ccc(O)cc1)C(=O)O; αMeF = C[C@](N)(Cc1ccccc1)C(=O)O; 4Pal = N[C@@H](Cc1ccncc1)C(=O)O; αMeL = CC(C)C[C@](C)(N)C(=O)O; Lauroyl = CCCCCCCCCCCC(=O)*; Orn = NCCC[C@H](N)C(=O)O; AEEA = NCCOCCOCC(=O)O; Aib = CC(C)(N)C(=O)O

Sequence of hGLP-1R (P43220 24-463): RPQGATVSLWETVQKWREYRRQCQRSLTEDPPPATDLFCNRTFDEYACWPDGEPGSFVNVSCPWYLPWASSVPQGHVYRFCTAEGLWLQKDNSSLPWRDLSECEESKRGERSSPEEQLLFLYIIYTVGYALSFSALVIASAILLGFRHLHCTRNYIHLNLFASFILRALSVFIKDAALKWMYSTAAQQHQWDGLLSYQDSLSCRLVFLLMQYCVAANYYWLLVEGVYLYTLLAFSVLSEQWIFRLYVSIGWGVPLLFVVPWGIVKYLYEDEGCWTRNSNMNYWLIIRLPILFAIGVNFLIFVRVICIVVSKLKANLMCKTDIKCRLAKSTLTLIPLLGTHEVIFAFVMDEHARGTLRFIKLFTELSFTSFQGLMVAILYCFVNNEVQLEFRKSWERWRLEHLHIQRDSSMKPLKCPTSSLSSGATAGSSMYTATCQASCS
T2 sequence (P47871 26-477): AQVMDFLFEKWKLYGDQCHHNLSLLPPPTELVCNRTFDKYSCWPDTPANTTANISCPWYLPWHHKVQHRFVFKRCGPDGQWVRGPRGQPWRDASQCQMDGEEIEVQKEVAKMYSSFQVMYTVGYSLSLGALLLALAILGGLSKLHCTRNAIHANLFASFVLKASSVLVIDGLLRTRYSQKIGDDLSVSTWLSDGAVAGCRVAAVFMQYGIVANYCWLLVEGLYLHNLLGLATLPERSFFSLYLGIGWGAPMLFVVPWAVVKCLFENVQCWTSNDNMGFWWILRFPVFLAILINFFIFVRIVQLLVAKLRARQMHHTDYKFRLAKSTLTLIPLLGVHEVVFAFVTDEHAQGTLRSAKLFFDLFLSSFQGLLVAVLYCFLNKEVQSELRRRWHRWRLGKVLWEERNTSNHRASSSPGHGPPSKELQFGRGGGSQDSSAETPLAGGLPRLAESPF

Consider `CC[C@H](C)[C@H](NC(=O)[C@H](CC(C)C)NC(=O)[C@](C)(Cc1ccc(O)cc1)NC(=O)[C@@H](CCC(=O)O)NC(=O)[C@@H](NC(=O)[C@H](Cc1ccccc1)NC(=O)[C@H](CCCCNC(=O)COCCOCCNC(=O)COCCOCCNC(=O)CC[C@H](NC(=O)CCCCCCCCCOc1ccc(C(=O)O)cc1)C(=O)O)NC(=O)C(C)(C)NC(=O)[C@H](CCC(N)=O)NC(=O)[C@H](C)NC(=O)[C@H](CCCCNC(=O)COCCOCCNC(=O)COCCOCCNC(=O)CC[C@H](NC(=O)CCCCCCCCCOc1ccc(C(=O)O)cc1)C(=O)O)NC(=O)[C@H](CCCN)NC(=O)[C@H](CC(=O)O)NC(=O)[C@H](CC(C)C)NC(=O)[C@](C)(CC(C)C)NC(=O)[C@@H](NC(=O)C(C)(C)NC(=O)[C@H](Cc1ccncc1)NC(=O)[C@H](CC(=O)O)NC(=O)[C@H](CO)NC(=O)[C@@H](NC(=O)[C@](C)(Cc1ccccc1F)NC(=O)[C@@H](NC(=O)CNC(=O)[C@H](CCC(=O)O)NC(=O)C(C)(C)NC(=O)[C@@H](N)Cc1ccc(O)cc1)[C@@H](C)O)[C@@H](C)O)[C@@H](C)CC)[C@@H](C)CC)C(=O)N[C@@H](CCCN)C(=O)NCC(=O)NCC(=O)N1CCC[C@H]1C(=O)N[C@@H](CO)C(=O)N[C@@H](CO)C(=O)NCC(=O)N[C@@H](C)C(=O)N1CCC[C@H]1C(=O)N1CCC[C@H]1C(=O)N1CCC[C@H]1C(=O)N[C@@H](CO)C(N)=O` [Example 408], for which, in experiment [1] (HEK293, read-out: hGIPR Emax, % ± SEM, cAMP, 37° C., 0.1% bovine casein and 1.0% human serum albumin), the Emax is 84.4%. In addition, the EC50 in experiment [1] (hGIPR EC50, nM (SEM, n), cAMP, 37° C., 0.1% bovine casein (no human serum albumin)) was 0.00888 nM; in experiment [2] (hGCGR EC50, nM (SEM, n), cAMP, 37° C., 0.1% bovine casein (no human serum albumin), geometric mean), greater than 9950 nM; in experiment [2] (hGCGR EC50, nM (SEM, n), cAMP, 37° C., 0.1% bovine casein and 1.0% human serum albumin, geometric mean (SEM, n)), greater than 9950 nM; in experiment [3] (hGLP-1R EC50, nM (SEM, n), 37° C.) it was 0.227 nM.

In the case of `CCCCCCCCCCCC(=O)N[C@@H](CCC(=O)NCCOCCOCC(=O)NCCOCCOCC(=O)NCCCC[C@H](NC(=O)[C@H](CO)NC(=O)[C@@H]1CCCN1C(=O)[C@@H]1CCCN1C(=O)[C@@H]1CCCN1C(=O)[C@H](C)NC(=O)CNC(=O)[C@H](CO)NC(=O)[C@H](CO)NC(=O)[C@@H]1CCCN1C(=O)CNC(=O)CNC(=O)[C@H](CCC(=O)O)NC(=O)[C@@H](NC(=O)[C@H](CC(C)C)NC(=O)[C@](C)(Cc1ccc(O)cc1)NC(=O)[C@@H](CCC(=O)O)NC(=O)[C@@H](NC(=O)[C@](C)(Cc1ccccc1)NC(=O)[C@H](CCC(=O)O)NC(=O)C(C)(C)NC(=O)[C@H](CCC(N)=O)NC(=O)[C@H](C)NC(=O)[C@H](CCCCNC(=O)COCCOCCNC(=O)COCCOCCNC(=O)CC[C@H](NC(=O)CCCCCCCCCCC)C(=O)O)NC(=O)[C@H](CCCN)NC(=O)[C@H](CC(=O)O)NC(=O)[C@H](CC(C)C)NC(=O)[C@](C)(CC(C)C)NC(=O)[C@@H](NC(=O)C(C)(C)NC(=O)[C@H](Cc1ccncc1)NC(=O)[C@H](CC(=O)O)NC(=O)[C@H](CO)NC(=O)[C@@H](NC(=O)[C@](C)(Cc1ccccc1F)NC(=O)[C@@H](NC(=O)CNC(=O)[C@H](CCC(=O)O)NC(=O)C(C)(C)NC(=O)[C@@H](N)Cc1ccc(O)cc1)[C@@H](C)O)[C@@H](C)O)[C@@H](C)CC)[C@@H](C)CC)[C@@H](C)CC)C(N)=O)C(=O)O` [Example 431] (H-Y[Aib]EGT[αMePhe(2-F)]TSD[4Pal][Aib]I[αMeL]LD[Orn]K([AEEA-AEEA-γGlu-Lauroyl])AQ[Aib]E[αMeF]I[dE][αMeY]LIEGGPSSGAPPPSK([AEEA-AEEA-γGlu-Lauroyl])-NH2), the Emax in experiment [1] (HEK293, cAMP, 37° C., 0.1% bovine casein and 1.0% human serum albumin, read-out: hGIPR Emax, % ± SEM) worked out at 98%; in experiment [3] (HEK293, cAMP, 37° C., 0.1% bovine casein and 1.0% human serum albumin, percent of maximal response to GLP-1(7-36)NH2) it was 91.6%. Also, the EC50 is 0.0097 nM in experiment [1] (setting [4]); greater than 9950 nM in experiment [2] (setting [5]); greater than 9950 nM in experiment [2] (cAMP, 37° C., 0.1% bovine casein and 1.0% human serum albumin, geometric mean (SEM, n), read-out: hGCGR EC50, nM (SEM, n)); 0.134 nM in experiment [3] (setting [6]).

For `CC[C@H](C)[C@H](NC(=O)[C@H](CCCN)NC(=O)[C@H](CC(=O)O)NC(=O)[C@H](CC(C)C)NC(=O)[C@](C)(CC(C)C)NC(=O)[C@@H](NC(=O)C(C)(C)NC(=O)[C@H](Cc1ccc(O)cc1)NC(=O)[C@H](CC(=O)O)NC(=O)[C@H](CO)NC(=O)[C@@H](NC(=O)[C@](C)(Cc1ccccc1F)NC(=O)[C@@H](NC(=O)CNC(=O)[C@H](CCC(=O)O)NC(=O)C(C)(C)NC(=O)[C@@H](N)Cc1ccc(O)cc1)[C@@H](C)O)[C@@H](C)O)[C@@H](C)CC)C(=O)N[C@@H](C)C(=O)N[C@@H](CCC(N)=O)C(=O)NC(C)(C)C(=O)N[C@@H](CCCCNC(=O)COCCOCCNC(=O)COCCOCCNC(=O)CC[C@H](NC(=O)CCCCCCCCCCCCC(=O)O)C(=O)O)C(=O)N[C@@H](Cc1ccccc1)C(=O)N[C@H](C(=O)N[C@H](CCC(=O)O)C(=O)N[C@@](C)(Cc1ccc(O)cc1)C(=O)N[C@@H](CC(C)C)C(=O)N[C@H](C(=O)N[C@@H](CCCCNC(=O)COCCOCCNC(=O)COCCOCCNC(=O)CC[C@H](NC(=O)CCCCCCCCCCCCC(=O)O)C(=O)O)C(=O)NCC(=O)NCC(=O)N1CCC[C@H]1C(=O)N[C@@H](CO)C(=O)N[C@@H](CO)C(=O)NCC(=O)N[C@@H](C)C(=O)N1CCC[C@H]1C(=O)N1CCC[C@H]1C(=O)N1CCC[C@H]1C(=O)N[C@@H](CO)C(N)=O)[C@@H](C)CC)[C@@H](C)CC` [Example 234] (H-Y[Aib]EGT[αMePhe(2-F)]TSDY[Aib]I[αMeL]LD[Orn]IAQ[Aib]K([AEEA-AEEA-γGlu-C14 diacid])FI[dE][αMeY]LIK([AEEA-AEEA-γGlu-C14 diacid])GGPSSGAPPPS-NH2; N-terminus assumed), the Emax is 84.4% in experiment [1] (HEK293, 0.1% bovine casein and 1.0% human serum albumin, 37° C., read-out: hGIPR Emax, % ± SEM); 112% in experiment [3] (HEK293, percent of maximal response to GLP-1(7-36)NH2, 37° C., 0.1% bovine casein, arithmetic mean). Moreover, the EC50 in experiment [1] (cAMP, incubated at 37° C., 0.1% bovine casein (no human serum albumin), read-out: hGIPR EC50, nM (SEM, n)) was 0.0182 nM; in experiment [2] (setting [7]) it was greater than 9950 nM; in experiment [2] (cAMP, incubated at 37° C., 0.1% bovine casein (no human serum albumin), geometric mean, read-out: hGCGR EC50, nM (SEM, n)), greater than 9950 nM; in experiment [3] (incubated at 37° C., read-out: hGLP-1R EC50, nM (SEM, n)), 0.319 nM.

For `CC[C@H](C)[C@H](NC(=O)[C@H](CCCN)NC(=O)[C@H](CC(=O)O)NC(=O)[C@H](CC(C)C)NC(=O)[C@](C)(CC(C)C)NC(=O)[C@@H](NC(=O)C(C)(C)NC(=O)[C@H](Cc1ccc(O)cc1)NC(=O)[C@H](CC(=O)O)NC(=O)[C@H](CO)NC(=O)[C@@H](NC(=O)[C@](C)(Cc1ccccc1F)NC(=O)[C@@H](NC(=O)CNC(=O)[C@H](CCC(=O)O)NC(=O)C(C)(C)NC(=O)[C@@H](N)Cc1ccc(O)cc1)[C@@H](C)O)[C@@H](C)O)[C@@H](C)CC)C(=O)N[C@@H](C)C(=O)N[C@@H](CCC(N)=O)C(=O)NC(C)(C)C(=O)N[C@@H](CCCN)C(=O)N[C@@H](Cc1ccccc1)C(=O)N[C@H](C(=O)N[C@@H](CCCCNC(=O)COCCOCCNC(=O)COCCOCCNC(=O)CC[C@H](NC(=O)CCCCCCCCCCCCC(=O)O)C(=O)O)C(=O)N[C@@](C)(Cc1ccc(O)cc1)C(=O)N[C@@H](CC(C)C)C(=O)N[C@H](C(=O)N[C@@H](CCCCNC(=O)COCCOCCNC(=O)COCCOCCNC(=O)CC[C@H](NC(=O)CCCCCCCCCCCCC(=O)O)C(=O)O)C(=O)NCC(=O)NCC(=O)N1CCC[C@H]1C(=O)N[C@@H](CO)C(=O)N[C@@H](CO)C(=O)NCC(=O)N[C@@H](C)C(=O)N1CCC[C@H]1C(=O)N1CCC[C@H]1C(=O)N1CCC[C@H]1C(=O)N[C@@H](CO)C(N)=O)[C@@H](C)CC)[C@@H](C)CC` [Example 316], the EC50 in experiment [1] (0.1% bovine casein and 1.0% human serum albumin, 37° C., read-out: hGIPR EC50, nM (SEM, n)) was 1.11 nM; in experiment [1] (setting [4]) it was 0.0316 nM; in experiment [2] (setting [7]), greater than 9950 nM; in experiment [2] (setting [5]), greater than 9950 nM; in experiment [3] (setting [6]), 0.571 nM. In addition, the Emax in experiment [3] (HEK293, 0.1% bovine casein and 1.0% human serum albumin, 37° C., percent of maximal response to GLP-1(7-36)NH2) was 113%; in experiment [3] (HEK293, cAMP, 37° C., 0.1% bovine casein, percent of maximal response to GLP-1(7-36)NH2, arithmetic mean), 109%.
